# Experiments:
# [1] = Rat Flinch Jump Test (suppression of the jump component); format: in vivo; design: unit not given here
# Text: D. Suppression of the "jump" component of the Flinch-Jump Test [Evans, Psychopharmacologia, 2, 318 (1961)].
# The following results were obtained when the performance of the d-, l and dl- forms of a compound of the invention were compared in the Rat Flinch Jump Thresholds The control Jump Threshold using saline were 0.78 at 0.5 hr. and 0.92 at 2 hr.
# The following results were obtained when 6,7-dimethoxy-2-methyl-4-oxo-1,2,3,4-tetrahydroquinoline, ethyl 6,7-dimethoxy-2-methyl-4-oxo-1,2,3,4-tetrahydroquinoline-1-carboxylate and benzyl 6,7-dimethoxy-2-methyl-4-oxo-1,2,3,4-tetrahydroquinoline-1-carboxylate were compared in the Rat Flinch Jump Test. The dosage of test compound was 56 mpk. Each of the compounds was in its racemic form.
# [2] = PBQ Writhing (Suppression of Writhing Test); format: in vivo; conditions: 100 mpk
# Text: F. Suppression of Writhing Test [Siegmund et al, Proc. Sec. Exp. Biol., 95, 729 (1957].
# Tail Flick Test = format: in vivo; conditions: 100 mpk
# Text: H. Tail Flick Test [Witkin et al, Proc. Soc. Exp. Biol., 101, 377 (1959)].
# LD50 = conditions: in vivo
# Hot Plate Test = format: in vivo; conditions: 100 mpk
# Text: G. Hot Plate Test [Eddy et al, J. Pharm. Exp. Ther., 107, 385 (1953)].
# [3] = Symptomatology (rotorod, inclined plane); format: in vivo, mice; conditions: intraperitoneally; for Symptomatology, Inclined Plane: inability to remain on an inclined plane; for Symptomatology, Rotorod: inability to ride a rotating rod
# Method: c. Symtomatology--Four groups of 3 mice were treated intraperitoneally with 31.6, 100, 316, or 1000 mg/kg of the test compound. At 1/2, 2, or 5 hours after treatment, symtomatological observations were made; observations were all-or-none, and classified into autonomic, muscular, reflex or behavioral categories. […] Symptoms interpreted as indicating tranquilizer activity included decreased spontaneous motor activity, inability to ride a rotating rod (rotorod), and inability to remain on an inclined plane.
# [4] = Mouse Tail Pinch Technique (modified Haffner procedure); format: in vivo, mice; conditions: lack of an audible squeak
# Text: The activity of compounds of this invention as analgesic agents has also been shown by testing their effectiveness in a Mouse Tail Pinch Technique. This technique was a modification of the Haffner procedure [Deutsche Med. Wochenschrifte, 55, 731-732 (1929)] in which the mice were strongly pinched on the base of the tail. An audible squeak was elicited in normal non-drugged mice. Lack of an audible squeak was taken as indication of analgesic activity in drugged mice.
# Escape Titration Test = format: in vivo; conditions: p.o.
# Text: E. Escape Titration Test [Weiss et al, Science, 128, 1575 (1958) ].
# [5] = Sedation Test (jiggle cage); format: in vivo, male Sprague-Dawley rats; conditions: oral, jiggle cage for 1 hr. from 1.5 hr.
# Text: B. Sedation Test -- The subjects were male Sprague-Dawley rats weighing approximately 200 g and fed and watered ad lib before the experiment. Eight rats were assigned to each treatment group, and each rat was used only once.
# 1.5 hr. after oral treatment, each rat was placed in a standard jiggle cage for 1 hr. In this device, the subject was confined in a 6 × 6 × 3.5 in. Plexiglas enclosure. The enclosure was attached to one end of a flexible steel arm. This configuration, all of which was housed in a soundproof, ventilated chamber, allowed the enclosure to jiggle slightly with any movement. A force displacement transducer mounted under the jiggle cage monitored any vertical movement of the subject. The output of the transducer was coupled to a strain-gauge amplifier and to an analog recorder. To provide digital data of movement/non-movement times a trigger circuit was constructed in which the output of the strain-gauge amplifier was attentuated and rectified to activate a relay whenever the subject moved. When the relay remained deenergized for 3 sec., a timer was activated. Movement by the subject energized the relay and stopped the timer until 3 sec. of immobility recurred. This 3 sec. criterion eliminated brief periods of inactivity observed even in active rats. […]
# [6] = Conditioned Avoidance Behavior (Sidman); format: in vivo
# Text: (§1) A. Conditioned Avoidance Behavior [Maffi, J. Pharmacol., 11, 129 (1959); Sidman, Science, 118, 157 (1953)].
# [7] = Conditioned Avoidance Behavior (Maffi); format: in vivo; conditions: 0.5 hr.
# Text: as §1
# [8] = 17.5 mpk, 2 hr, d-, l- and dl- forms compared, saline control 0.92
# [9] = 17.5 mpk, .5 hr, d-, l- and dl- forms compared, saline control 0.78
# [10] = 32 mpk, 2 hr, d-, l- and dl- forms compared, saline control 0.92
# [11] = 32 mpk, .5 hr, d-, l- and dl- forms compared, saline control 0.78
# [12] = 56 mpk, 2 hr, d-, l- and dl- forms compared, saline control 0.92
# [13] = 56 mpk, .5 hr, d-, l- and dl- forms compared, saline control 0.78
# [14] = 56 mpk, 0.5 hr., racemic compounds compared (table 4)
# [15] = 56 mpk, 2.0 hr., racemic compounds compared (table 4)
smiles,measurement,setting,value
COC(=O)N1c2cc(OC)c(OC)cc2C(=O)CC1C (stereo not shown) [drawing 12],"Rat Flinch Jump Test, Jump Threshold","[1]; 32 mpk i.p., 2 h",1.2
same,"Rat Flinch Jump Test, Jump Threshold","[1]; 32 mpk i.p., .5 h",1.6
same,PBQ Writhing,[2],Inactive at 100 mpk
same,Tail Flick % Protected,Tail Flick Test; 2 h,0%
same,Tail Flick % Protected,Tail Flick Test; .5 h,0%
same,LD50,LD50,> 1000 mg/kg
same,Hot Plate % Protected,Hot Plate Test; 2 h,0%
same,Hot Plate % Protected,Hot Plate Test; .5 h,0%
COc1cc2c(cc1OC)N(C(=O)OCc1ccccc1)C(C)CC2=O (stereo not shown) [drawing 14],PBQ Writhing,[2],Inactive at 100 mpk
same,LD50,LD50,> 1000 mg/kg
"CCOC(=O)N1c2cc(OC)c(OC)cc2C(=O)CC1C (single isomer, unassigned) [l-ethyl 6,7-dimethoxy-2-methyl-4-oxo-1,2,3,4-tetrahydroquino] [l-Ethyl 6,7-Dimethoxy-2-methyl-4-oxo-1,2,3,4-tetrahydroquinoline-1-carboxylate]",Jump Threshold,[1]; [8],0.92
same,Jump Threshold,[1]; [9],0.92
same,Jump Threshold,[1]; [10],0.86
same,Jump Threshold,[1]; [11],0.85
same,Jump Threshold,[1]; [12],0.86
same,Jump Threshold,[1]; [13],1.05
COC(=O)N1c2cc(OC)c(OC)cc2C(=O)CC1C (stereo not shown) [drawing 8],"Symptomatology, Inclined Plane",[3],100-316 mpk
same,"Symptomatology, Rotorod",[3],100-316 mpk
CCCCOC(=O)N1c2cc(OC)c(OC)cc2C(=O)CC1C (stereo not shown) [drawing 13],"Rat Flinch Jump Test, Jump Threshold","[1]; 32 mpk i.p., 2 h",1.2
same,"Rat Flinch Jump Test, Jump Threshold","[1]; 32 mpk i.p., .5 h",1.6
same,PBQ Writhing,[2],Inactive at 100 mpk
same,Tail Flick % Protected,Tail Flick Test; 2 h,0%
same,Tail Flick % Protected,Tail Flick Test; .5 h,0%
same,LD50,LD50,316 to 1000 mg/kg
same,Hot Plate % Protected,Hot Plate Test; 2 h,0%
same,Hot Plate % Protected,Hot Plate Test; .5 h,0%
"CCOC(=O)N1c2cc(OC)c(OC)cc2C(=O)CC1C (racemic) [Ethyl 6,7-Dimethoxy-2-methyl-4-oxo-1,2,3,4-tetrahydroquinoline-1-carboxylate]",Jump Threshold,[1]; [8],0.98
same,Jump Threshold,[1]; [9],1.26
same,Jump Threshold,[1]; [10],1.18
same,Jump Threshold,[1]; [11],1.38
same,Jump Threshold,[1]; [14],1.58
same,Jump Threshold,[1]; [15],1.42
same,Jump Threshold,[1]; [12],1.45
same,Jump Threshold,[1]; [13],1.58
COC(=O)N1c2cc(OC)c(OC)cc2C(=O)CC1C (stereo not shown) [drawing 16],ED50,[4],100 to 316 mg/kg
CCOC(=O)N1c2cc(OC)c(OC)cc2C(=O)CC1C (stereo not shown) [drawing 11],"Rat Flinch Jump Test, Jump Threshold","[1]; 3.2 mpk i.p., 2 h",.6
same,"Rat Flinch Jump Test, Jump Threshold","[1]; 3.2 mpk i.p., .5 h",.8
same,"Rat Flinch Jump Test, Jump Threshold","[1]; 10 mpk i.p., 2 h, Run two",.8
same,"Rat Flinch Jump Test, Jump Threshold","[1]; 32 mpk i.p., 2 h",> 2.2
same,"Rat Flinch Jump Test, Jump Threshold","[1]; 32 mpk i.p., .5 h",> 2.2
same,PBQ Writhing,[2],Inactive at 100 mpk
same,Tail Flick % Protected,Tail Flick Test; 2 h,0%
same,Tail Flick % Protected,Tail Flick Test; .5 h,0%
same,LD50,LD50,> 1000 mg/kg
same,Escape Titration,Escape Titration Test,Active at 32 mpk (p.o.)
same,Hot Plate % Protected,Hot Plate Test; 2 h,0%
same,Hot Plate % Protected,Hot Plate Test; .5 h,0%
"CCOC(=O)N1c2cc(OC)c(OC)cc2C(=O)CC1C (single isomer, unassigned) [d-ethyl 6,7-dimethoxy-2-methyl-4-oxo-1,2,3,4-tetrahydroquino] [d-Ethyl 6,7-Dimethoxy-2-methyl-4-oxo-1,2,3,4-tetrahydroquinoline-1-carboxylate]",Jump Threshold,[1]; [8],0.98
same,Jump Threshold,[1]; [9],1.26
same,Jump Threshold,[1]; [10],1.38
same,Jump Threshold,[1]; [11],1.45
same,Jump Threshold,[1]; [12],1.45
same,Jump Threshold,[1]; [13],1.51
"COc1cc2c(cc1OC)N(C(=O)OCc1ccccc1)C(C)CC2=O (racemic) [Benzyl 6,7-Dimethoxy-2-methyl-4-oxo-1,2,3,4-tetrahydroquinoline-1-carboxylate]",Jump Threshold,[1]; [14],1.47
same,Jump Threshold,[1]; [15],1.21
COc1cc2c(cc1OC)N(C(=O)OCc1ccccc1)C(C)CC2=O (stereo not shown) [drawing 10],"Symptomatology, Inclined Plane",[3],100-316 mpk
same,"Symptomatology, Rotorod",[3],100-316 mpk
CCOC(=O)N1c2cc(OC)c(OC)cc2C(=O)CC1C (stereo not shown) [drawing 15],ED50,[4],> 100 mg/kg
CCOC(=O)N1c2cc(OC)c(OC)cc2C(=O)CC1C (stereo not shown) [drawing 7],"Symptomatology, Inclined Plane",[3],32-100 mpk
same,"Symptomatology, Rotorod",[3],3.2-10 mpk
same,Sedation Test,[5]; 10 mpk,Inactive at 10
same,Sedation Test,[5]; 32 mpk,Active at 32 mpk
same,"Conditioned Avoidance Behavior, Sidman",[6]; 17.8 mpk,2 of 3 animals
same,"Conditioned Avoidance Behavior, Sidman",[6]; 32 mpk,Active in 3 of 3 animals
same,"Conditioned Avoidance Behavior, Maffi",[7],"Active at 56, 32 and 10 mpk"
CCCCOC(=O)N1c2cc(OC)c(OC)cc2C(=O)CC1C (stereo not shown) [drawing 17],ED50,[4],> 32 mg/kg
"COc1cc2c(cc1OC)C(=O)CC(C)N2 (racemic) [6,7-Dimethoxy-2-methyl-4-oxo-1,2,3,4-tetrahydroquinoline]",Jump Threshold,[1]; [14],1.47
same,Jump Threshold,[1]; [15],1.10
CCCCOC(=O)N1c2cc(OC)c(OC)cc2C(=O)CC1C (stereo not shown) [drawing 9],"Symptomatology, Inclined Plane",[3],100-316 mpk
same,"Symptomatology, Rotorod",[3],32-100 mpk

# Source: patent US4013662A, “Alkyl and benzyl 6,7-dialkoxy-2-methyl-4-oxo-1,2,3,4-tetrahydroquinoline-1-carboxylates” (Pfizer Inc., priority 1975, dated 1977)
